Reference: US20230322735A1, “AZETIDINYL TRYPTAMINES AND METHODS OF TREATING PSYCHIATRIC DISORDERS” (priority 2020, published 2023)

Legend:
[1] = Chemical stability of the product on storage and analysis; type: physicochemical
Experimental: Note: The product 2 is unstable and should be stored frozen, protected from light, and under inert gas. If stored properly, stability has been confirmed by qNMR for at least 1 month.
A mixture of 3-(2-(azetidin-1-yl)ethyl)-1H-indol-4-ol (2, 50 mg, 231.18 μmol, 1 eq) and pyridine (23.77 mg, 300.54 μmol, 24.26 μL, 1.3 eq) in DCM (1 mL) was cooled to 0° C. Then acetic anhydride (25.96 mg, 254.30 μmol, 23.82 μL, 1.1 eq) was added dropwise at 0° C. and the resulting mixture was stirred at 25° C. for 1 h. At this time, the solvent was removed and the residue was purified by prep-HPLC (column=Waters Xbridge BEH C18 (100*30 mm, 10 μm); mobile phase=water(NH4HCO3)-ACN, B %=5%-40%; 10 min run time) to provide 3-(2-(azetidin-1-yl)ethyl)-1H-indol-4-yl acetate (4) as a white solid (20 mg, 33% yield). ^1H NMR (400 MHz, DMSO-d6) δ 11.01 (br s, 1H), 7.22 (d, J=8.0 Hz, 1H), 7.11 (d, J=1.6 Hz, 1H), 7.02 (t, J=8.0 Hz, 1H), 6.64 (d, J=7.6 Hz, 1H), 3.09 (t, J=6.8 Hz, 4H), 2.57-2.54 (m, 4H), 2.32 (s, 3H), 1.96-1.90 (m, 2H); LCMS (RT=0.983 min, MS calc.: 258.14, [M+H]+=259.1).

[2] = Stability in mouse brain homogenate
[3] = Metabolic stability in human liver microsomes (HLM)
[4] = both, human, pooled human liver microsomes, pH 7.4

Oc1cccc2[nH]cc(CCN3CCC3)c12 [Compound 2, 3-(2-(azetidin-1-yl)ethyl)-1H-indol-4-ol]
stability of the product (in words) ([1]; storage): unstable | time for which stability was confirmed by qNMR ([1]; stored frozen, protected from light, under inert gas): at least 1 month | stability in mouse brain homogenate (in words) [2]: good stability | half-life at 1 μM ([2]; male, CD-1, mouse, mouse brain homogenate): > 4.82 h | % Compound Remaining (after 120 min) ([2]; mouse brain homogenate (male CD-1), 1 μM, 37° C., 120 min): 74.2% | half-life at 1 μM [3, 4]: > 2.42 h | microsomal CLint at 1 μM [3, 4]: < 9.6 µL/min/mg | metabolic stability in HLM compared with dimethyl counterpart ([3]; vs DMT, psilocin, 5-MeO-DMT respectively): greater metabolic stability
